Patent US20090220648A1, “Nutritional additive for animals” (KEMIRA GROW HOW AB, priority 2005, published 2009)

Test: Buffering capacity
Type: physicochemical

SMILES	buffering capacity, mekvH+/kg sample [mekvH+/kg sample]
O=S(=O)([O-])[O-].[Ca+2] [CaSO4]	50
O=C([O-])[O-].[Ca+2] [CaCO3]	14850
